In patent publication US20160375073A1, “COMPOSITION FOR TREATMENT OR PREVENTION OF OBESITY, CONTAINING WATER EXTRACTS OF FOMITELLA FRAXINEA” (POSTECH ACADEMY-INDUSTRY FOUNDATION, priority 2011, published 2016):

Test system: lipid absorption in the digestive tract
Experiment: Amount of lipid absorption from the digestive tract into blood (14C-triolein, plasma radioactivity)
Assay type: in vivo, mouse
Conditions: male Balb/c mice, oral 14C-triolein, plasma 6 hours after administration, relative to untreated control = 1; FIG. 3
Experimental: Triolein (Amersham, 100 μCi/mL) radiolabeled with ^14C was mixed with 1% (w/v) sodium carboxylmethyl cellulose (CMC-Na) and 1% (v/v) Tween 80, and then 0.1 mL of the mixture was forcibly administered into each mouse through an oral zonde so that 1 μCi could be delivered to each mouse. Here, the mouse in the control group (an 8-week old male Balb/c with body weight of 25 g) was treated with 400 μg of Orlistat (20 mg/kg), which is used as an obesity treatment, and the mouse in the experimental group (an 8-week old male Balb/c with body weight of 25 g) was treated with 0.5 mL of the water extract (50 mg/mL) of Fomitella […] prepared in the Example after concentrating it into 0.1 mL. Six hours after the administration, blood samples were collected from the mice, and plasma was obtained by centrifuging the blood at […] at the rate of 14000 rpm, and the radioactive dose was measured by a liquid scintillator (Beta counter, Beckman LS1801). The control group was not treated with anything. The amount of lipid absorption was determined as a relative value by dividing the radioactive dose of each group into the radioactive dose of the control group, in which the radioactive dose of the control group was set at '1'. […] In particular, the result on the control group in FIG. 3 was obtained from the blood sample of a mouse not treated with any lipid absorption inhibitor.

## CCCCCCCCCCC[C@@H](C[C@@H]1OC(=O)[C@H]1CCCCCC)OC(=O)[C@H](CC(C)C)NC=O [Orlistat, orlistat]
  inhibitory effect upon lipid absorption: significant inhibitory effect upon lipid absorption
